# From patent EP1561465A2, “Methods of use of fluoroquinolone compounds against bacteria” (LG Life Sciences, Ltd., priority 1999, dated 2001)
# “And” between values parts separate entries of the source, which are not always exact repeats. Equal values may be shown once. Read-outs that look alike come from different tables or passages of the source.
# Tests used:
# Streptococcus pneumoniae [1] = test: MIC by agar dilution (NCCLS), 411 isolates Buenos Aires 1998-99; assay type: cell-based; conditions: Streptococcus pneumoniae, S. pneumoniae, read-out: MIC90
# Streptococcus pneumoniae [2] = test: MIC by E-test (broth microdilution for gemifloxacin), 107 pneumococcal carrier isolates, Athens 1998; assay type: cell-based; conditions: E-test; for MIC Range: in µg/mL (unit assumed)
# Method: Susceptibility testing was performed by agar dilution or epsilometer method (E-test), as recommended by the NCCLS. […] The susceptibility profiles of the strains were assessed using the Epsilometer method (E-test). The isolates were subdivided into two groups according to their penicillin susceptibility patterns (penicillin-susceptible and penicillin-intermediate.
# Staphylococcus aureus = test: MIC by agar macrodilution (NCCLS), 373 Gram positive isolates, Athens 1998; assay type: cell-based; conditions: Methicillin-susceptible Staphylococcus aureus (n = 85)
# Salmonella spp. [3] = test: MIC by agar dilution (NCCLS M7-A4), 288 enteropathogenic isolates, eight quinolones; assay type: cell-based
# Hafnia alvei [4] = test: as above; assay type: cell-based
# Yersinia enterocolitica [5] = test: as above; assay type: cell-based
# Shigella spp. [6] = test: as above; assay type: cell-based
# Aeromonas spp. [7] = test: as above; assay type: cell-based
# Campylobacter jejuni [8] = test: MIC by agar dilution (NCCLS M7-A4), 5% sheep blood, microaerophilic 48 h; assay type: cell-based
# Salmonella spp. [9] = test: MIC by agar dilution (NCCLS M7-A4), 288 enteropathogenic isolates, gemifloxacin and 15 other antimicrobials; assay type: cell-based
# Hafnia alvei [10] = test: as above; assay type: cell-based; conditions: Hafnia alvei
# Yersinia enterocolitica [11] = test: as above; assay type: cell-based; conditions: Yersinia enterocolitica
# Shigella spp. [12] = test: as above; assay type: cell-based; conditions: Shigella spp. N= 21
# Method: [A. hydrophila (12), and A. sobria (4)], and 91 Campylobacter jejuni. […] The strains were stored in skimmed-milk at -80 °C until studied.
# The plates were incubated aerobically at 35 °C for 24 h, except for Campylobacter jejuni, where a microaerophilic atmosphere was obtained by using Campy Pack (Becton Dickinson, Cockeysville, MD, USA), and incubation was for 48 h. All organisms were tested with an inoculum of ≅ 10^4 cfu/spot. MICs were defined as the lower antibiotic concentration with no visible growth.
# Aeromonas spp. [13] = test: as above; assay type: cell-based; conditions: for MIC: Aeromonas
# Campylobacter jejuni [14] = test: as above; conditions: Campylobacter jejuni
# Enterococcus faecalis = test: MIC by agar macrodilution (NCCLS), 373 Gram positive isolates, Athens 1998; assay type: cell-based
# Enterococcus faecium = test: as above; assay type: cell-based
# [15] = 24 h, read-out: MIC (mg/L) Range
# [16] = Penicillin-intermediate S. pneumoniae (n = 24), unit assumed
# [17] = Penicillin-susceptible S. pneumoniae (n = 107), unit assumed
# [18] = number of isolates at MIC […], n = 81
# [19] = number of isolates at MIC […], n = 14
# [20] = number of isolates with MIC […] µg/ml
# [21] = number of isolates with MIC […]
compound,measurement,setting,value
"CC[C@H]1OC(=O)[C@H](C)[C@@H](O[C@H]2C[C@@](C)(OC)[C@@H](O)[C@H](C)O2)[C@H](C)[C@@H](O[C@@H]2O[C@H](C)C[C@H](N(C)C)[C@H]2O)[C@](C)(O)C[C@@H](C)CN(C)[C@H](C)[C@@H](O)[C@]1(C)O [Azithromycin, azithromycin]",MIC90,Streptococcus pneumoniae [1]; Penicillin intermediate (n = 17),1 µg/mL
same,MIC90,Streptococcus pneumoniae [1]; Penicillin resistant (n = 4),0.06 µg/mL
same,MIC90,Streptococcus pneumoniae [1]; Penicillin susceptible (n = 69),0.06 µg/mL
same,MIC50,"Streptococcus pneumoniae [2]; Streptococcus pneumoniae, Penicillin-intermediate S. pneumoniae (n = 24), read-out: MIC50",1 µg/mL
same,MIC90,"Streptococcus pneumoniae [2]; Streptococcus pneumoniae, Penicillin-intermediate S. pneumoniae (n = 24), read-out: MIC90",≥ 256 µg/mL
same,MIC50,"Streptococcus pneumoniae [2]; Streptococcus pneumoniae, Penicillin-susceptible S. pneumoniae (n = 107), read-out: MIC50",0.75 µg/mL
same,MIC90,"Streptococcus pneumoniae [2]; Streptococcus pneumoniae, Penicillin-susceptible S. pneumoniae (n = 107), read-out: MIC90",3 µg/mL
same,MIC50,Staphylococcus aureus; read-out: MIC50,1 µg/mL
same,MIC90,Staphylococcus aureus; read-out: MIC90,2 µg/mL
"CCn1cc(C(=O)O)c(=O)c2ccc(C)nc21 [Nalidixic acid, nalidixic acid]",MIC,Salmonella spp. [3],> 128 µg/mL
same,MIC,Salmonella spp. [3]; Salmonella,> 128 µg/mL
same,MIC50,Salmonella spp. [3]; Salmonella,4 µg/mL
same,MIC90,Salmonella spp. [3]; Salmonella,> 128 µg/mL
same,Non-susceptibility rate,Salmonella spp. [3]; Salmonella spp.,27%
same,% Susceptible,Salmonella spp. [3]; Salmonella spp. (n = 106),73%
same,Non-susceptibility rate,Hafnia alvei [4]; H. alvei,0%
same,MIC50,Hafnia alvei [4]; Hafnia alvei,2 µg/mL
same,MIC90,Hafnia alvei [4]; Hafnia alvei,2 µg/mL
same,% Susceptible,Hafnia alvei [4]; Hafnia alvei (n = 32),100%
same,MIC Range,Hafnia alvei [4]; Hafnia alvei (n = 32),1 to 2 µg/mL
same,Non-susceptibility rate,Yersinia enterocolitica [5]; Y. enterocolitica,4.5%
same,MIC50,Yersinia enterocolitica [5]; Yersinia enterocolitica,2 µg/mL
same,MIC90,Yersinia enterocolitica [5]; Yersinia enterocolitica,2 µg/mL
same,% Susceptible,Yersinia enterocolitica [5]; Yersinia enterocolitica (n = 22),95.5%
same,Non-susceptibility rate,Shigella spp. [6]; Shigella spp.,0%
same,% Susceptible,Shigella spp. [6]; Shigella spp. (n = 21),100%
same,MIC50,Shigella spp. [6]; Shigella spp. (n = 21),1 µg/mL
same,MIC90,Shigella spp. [6]; Shigella spp. (n = 21),2 µg/mL
same,MIC Range,Shigella spp. [6]; Shigella spp. (n = 21),1 to 2 µg/mL
same,MIC50,Aeromonas spp. [7]; Aeromonas,0.12 µg/mL
same,MIC90,Aeromonas spp. [7]; Aeromonas,0.25 µg/mL
same,Non-susceptibility rate,Aeromonas spp. [7]; Aeromonas spp.,6.25% and 6.3%
same,% Susceptible,Aeromonas spp. [7]; Aeromonas spp. (n = 16),93.75%
same,Non-susceptibility rate,Campylobacter jejuni [8]; C. jejuni,69.24%
same,MIC50,Campylobacter jejuni [8]; Campylobacter jejuni,> 128 µg/mL
same,MIC90,Campylobacter jejuni [8]; Campylobacter jejuni,> 128 µg/mL
same,% Susceptible,Campylobacter jejuni [8]; Campylobacter jejuni (n=91),30.76%
same,MIC,Salmonella spp. [9],> 128 mg/L
same,MIC,"Salmonella spp. [9]; S. hadar(2), isolates with MICs for ciprofloxacin ≥[…]",>128 mg/L
same,MIC,Salmonella spp. [9]; Salmonella,> 128 mg/L
same,Rates of non-susceptible microorganisms,Salmonella spp. [9]; Salmonella spp.,27%
same,MIC,"Salmonella spp. [9]; Salmonella, read-out: MIC (mg/L) 50%",4 mg/L
same,MIC,"Salmonella spp. [9]; Salmonella, read-out: MIC (mg/L) 90%",> 128 mg/L
same,MIC,Hafnia alvei [10]; [15],1 to 2 mg/L
same,MIC,Hafnia alvei [10]; read-out: MIC (mg/L) 50%,2 mg/L
same,MIC,Hafnia alvei [10]; read-out: MIC (mg/L) 90%,2 mg/L
same,Rates of non-susceptible microorganisms,Yersinia enterocolitica [11],5%
same,MIC,Yersinia enterocolitica [11]; read-out: MIC (mg/L) 50%,2 mg/L
same,MIC,Yersinia enterocolitica [11]; read-out: MIC (mg/L) 90%,2 mg/L
same,MIC,Shigella spp. [12]; [15],1 to 2 mg/L
same,MIC,Shigella spp. [12]; read-out: MIC (mg/L) 50%,1 mg/L
same,MIC,Shigella spp. [12]; read-out: MIC (mg/L) 90%,2 mg/L
same,Rates of non-susceptible microorganisms,Aeromonas spp. [13]; Aeromonas spp.,6%
same,MIC,Aeromonas spp. [13]; read-out: MIC (mg/L) 50%,0.12 mg/L
same,MIC,Aeromonas spp. [13]; read-out: MIC (mg/L) 90%,0.25 mg/L
same,MIC,Campylobacter jejuni [14]; read-out: MIC (mg/L) 50%,> 128 mg/L
same,MIC,Campylobacter jejuni [14]; read-out: MIC (mg/L) 90%,> 128 mg/L
Teicoplanin,MIC Range,Streptococcus pneumoniae [2]; Penicillin-intermediate S. pneumoniae (n = 24),0.023-0.125
same,MIC50,Streptococcus pneumoniae [2]; [16],0.064 µg/mL
same,MIC90,Streptococcus pneumoniae [2]; [16],0.125 µg/mL
same,MIC Range,Streptococcus pneumoniae [2]; Penicillin-susceptible S. pneumoniae (n = 107),0.023-3
same,MIC50,Streptococcus pneumoniae [2]; [17],0.064 µg/mL
same,MIC90,Streptococcus pneumoniae [2]; [17],0.38 µg/mL
same,MIC50,Enterococcus faecalis; n = 81 isolates,0.5 µg/mL
same,MIC90,Enterococcus faecalis; n = 81 isolates,1 µg/mL
same,MIC Range,Enterococcus faecalis; n = 81 isolates,0.06 to 16 µg/mL
same,MIC distribution (µg/ml) 0.03,"Enterococcus faecalis; number of isolates at MIC 0.03 µg/ml, n = 81",0
same,MIC distribution (µg/ml) 0.06,"Enterococcus faecalis; number of isolates at MIC 0.06 µg/ml, n = 81",2
same,MIC distribution (µg/ml) 0.5,"Enterococcus faecalis; number of isolates at MIC 0.5 µg/ml, n = 81",35
same,MIC distribution (µg/ml) 1,"Enterococcus faecalis; number of isolates at MIC 1 µg/ml, n = 81",27
same,MIC distribution (µg/ml) 2,"Enterococcus faecalis; number of isolates at MIC 2 µg/ml, n = 81",4
same,MIC distribution (µg/ml) 4,"Enterococcus faecalis; number of isolates at MIC 4 µg/ml, n = 81",0
same,MIC distribution (µg/ml) 8,"Enterococcus faecalis; number of isolates at MIC 8 µg/ml, n = 81",0
same,MIC distribution (µg/ml) 16,"Enterococcus faecalis; number of isolates at MIC 16 µg/ml, n = 81",1
same,MIC distribution (µg/ml) 0.125,Enterococcus faecalis; [18],6
same,MIC distribution (µg/ml) 0.25,Enterococcus faecalis; [18],6
same,MIC distribution (µg/ml) ≤0.015,"Enterococcus faecalis; number of isolates at MIC ≤[…], n = 81",0
same,MIC distribution (µg/ml) ≥32,"Enterococcus faecalis; number of isolates at MIC ≥32 µg/ml, n = 81",0
same,MIC50,Enterococcus faecium; n = 14 isolates,0.5 µg/mL
same,MIC90,Enterococcus faecium; n = 14 isolates,1 µg/mL
same,MIC Range,Enterococcus faecium; n = 14 isolates,0.25 to 4 µg/mL
same,MIC distribution (µg/ml) 0.03,"Enterococcus faecium; number of isolates at MIC 0.03 µg/ml, n = 14",0
same,MIC distribution (µg/ml) 0.06,"Enterococcus faecium; number of isolates at MIC 0.06 µg/ml, n = 14",0
same,MIC distribution (µg/ml) 0.5,"Enterococcus faecium; number of isolates at MIC 0.5 µg/ml, n = 14",4
same,MIC distribution (µg/ml) 1,"Enterococcus faecium; number of isolates at MIC 1 µg/ml, n = 14",6
same,MIC distribution (µg/ml) 2,"Enterococcus faecium; number of isolates at MIC 2 µg/ml, n = 14",0
same,MIC distribution (µg/ml) 4,"Enterococcus faecium; number of isolates at MIC 4 µg/ml, n = 14",1
same,MIC distribution (µg/ml) 8,"Enterococcus faecium; number of isolates at MIC 8 µg/ml, n = 14",0
same,MIC distribution (µg/ml) 16,"Enterococcus faecium; number of isolates at MIC 16 µg/ml, n = 14",0
same,MIC distribution (µg/ml) 0.125,Enterococcus faecium; [19],0
same,MIC distribution (µg/ml) 0.25,Enterococcus faecium; [19],3
same,MIC distribution (µg/ml) ≤0.015,"Enterococcus faecium; number of isolates at MIC ≤[…], n = 14",0
same,MIC distribution (µg/ml) ≥32,"Enterococcus faecium; number of isolates at MIC ≥32 µg/ml, n = 14",0
same,MIC50,Staphylococcus aureus,1 µg/mL
same,MIC90,Staphylococcus aureus,2 µg/mL
same,MIC Range,Staphylococcus aureus,0.5 to 8 µg/mL
same,MIC distribution (µg/ml) 0.06,Staphylococcus aureus; number of isolates with MIC 0.06 µg/ml,0
same,MIC distribution (µg/ml) 0.5,Staphylococcus aureus; number of isolates with MIC 0.5 µg/ml,26
same,MIC distribution (µg/ml) 1,Staphylococcus aureus; number of isolates with MIC 1 µg/ml,40
same,MIC distribution (µg/ml) 2,Staphylococcus aureus; number of isolates with MIC 2 µg/ml,17
same,MIC distribution (µg/ml) 4,Staphylococcus aureus; number of isolates with MIC 4 µg/ml,0
same,MIC distribution (µg/ml) 8,Staphylococcus aureus; number of isolates with MIC 8 µg/ml,2
same,MIC distribution (µg/ml) >64,Staphylococcus aureus; number of isolates with MIC >[…] µg/ml,0
same,MIC distribution (µg/ml) 16,Staphylococcus aureus; [20],0
same,MIC distribution (μg/ml) 32,Staphylococcus aureus; [20],0
same,MIC distribution (μg/ml) 64,Staphylococcus aureus; [20],0
same,MIC distribution (µg/ml) 0.125,Staphylococcus aureus; [21],0
same,MIC distribution (µg/ml) 0.25,Staphylococcus aureus; [21],0
same,MIC distribution (µg/ml) ≤0.03,Staphylococcus aureus; number of isolates with MIC ≤0.03 µg/ml,0
